Laboratory results reported in patent US8017350B2, “Glimepiride- and insulin-induced glycosylphosphatidylinositol-specific phospholipase C regulation” (Sanofi-Aventis Deutschland GmbH, priority 2004, dated 2011).

Key:
[1] = target: PI-PLC, Bacillus cereus (recombinant) (Bacillus cereus, UniProt P14262); experiment: Inhibition of PI-PLC (B. cereus), cleavage of GPI-protein, TX-114 partitioning; format: biochemical
From the text: Human recombinant insulin, PIG41 (disclosed in “Frick, W. et al., (1998) Biochemistry 37, 13421-13436”) and glimepiride (trade name Amaryl) were supplied by the medicinal chemistry and synthesis departments of Aventis Pharma Germany (Frankfurt, Germany). 12-((7-nitrobenz-2-oxa-1,3-diazol-4-yl)amino)dodecanoic acid (NBD-FA) was synthesized as described in Müller et al., (1997) Biochem. Biophys. Acta 1347: 23-39. Collagenase (Worthington, CLS, type I, 250 units/mg) was provided by Biochrom (Berlin, Germany). Lipoprotein lipase (LPL, affinity-purified) from bovine milk, phospholipase A2 (honey bee venom), crude porcine pancreatic lipase (PL), recombinant PC- and PI-PLC (Bacillus cereus), crude PLD (cabbage) and defatted BSA (fraction V) were delivered by SigmalAldrich (Deisenhofen, Germany), crude PI-PLC (rat liver) and proteinase inhibitors were purchased from Roche Molecular Biochemicals (Mannheim, Germany). Recombinant GPI-PLC (Trypanosoma brucei) was obtained from Oxford Glycosystems (Oxford, UK). Inhibitors of PLA2 (AACOCF3) and PLC (U 73122) were from Tocris (Avonmouth, UK). Bisbodipy-C11-PC was bought from Molecular Probes (Eugene, Oreg.). Lipids were purchased from Avanti Polar Lipids (Birmingham, Ala.). […]

[2] = system: isolated rat adipocytes; experiment: isoproterenol-induced lipolysis (glycerol release); format: cell-based
Experimental: Electroporation was performed as described in “Müller, G. et al., (2000) Mol. Cell. Biol. 20: 4708-4723”. Lipolysis was determined as release of glycerol or fluorescent NBD-FA from prelabeled and isoproterenol-stimulated adipocytes as described in “Müller, G. et al., (2003) Biochimie 85: 1245-1256”. Gce1 was detected by photolabeling of solubilized plasma membranes or hc/lcDIGs (10-50 μg protein) with 8-N3—[^32P]cAMP and subsequent phosphorimaging as described in “Müller, G. et al., (1994) Biochemistry 33: 12149-12159”. 5′-Nuc, aP and AChE activities were measured according to “Eliakim, R. et al., (1990) Biochim. Biophys. Acta 1355: 293-302”. Protein was determined using the BCA protein determination kit from Pierce (Rockford, Ill.) and BSA as calibration standard. SDS-PAGE was performed using precast gels (Novex, San Diego, Calif.; 10% Bis-Tris resolving gel, morpholinopropanesulfonic acid-SDS running buffer). Lumiimages were evaluated on a LumiImager using LumiImager software (Roche Diagnostics). Phosphor- and fluorescence images were processed and quantified using the Storm 860 PhosphorImager system (Molecular Dynamics, Gelsenkirchen, Germany). Figures were constructed using the ADOBE PHOTOSHOP software (Adobe Systems, Mountain View, Calif.).
FIG. 8: Effect of GPI-2350 on the glimepiride/insulin-induced metabolic activity. […]

Sequence of PI-PLC, Bacillus cereus (recombinant) (P14262 32-329 limits assumed): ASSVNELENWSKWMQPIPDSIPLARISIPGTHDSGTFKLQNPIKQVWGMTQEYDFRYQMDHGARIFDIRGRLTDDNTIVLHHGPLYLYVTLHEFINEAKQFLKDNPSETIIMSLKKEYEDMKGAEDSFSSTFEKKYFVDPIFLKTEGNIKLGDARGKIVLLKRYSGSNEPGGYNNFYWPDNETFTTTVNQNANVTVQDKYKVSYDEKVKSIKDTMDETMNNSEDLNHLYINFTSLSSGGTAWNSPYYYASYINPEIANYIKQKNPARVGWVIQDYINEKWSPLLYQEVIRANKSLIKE

Structure (SMILES): CCCCCCCCCCCCP1(=O)O[C@@H]2[C@H](O)[C@@H](O)[C@H](O)[C@@H](O)[C@@H]2O1 (stereo partly drawn) [GPI-2350, myo-inositol-1,2-cyclo-dodecylphosphonic acid]
- inhibition in words [1]: potent inhibitor
- effect on insulin inhibition of lipolysis [2]: only marginally reduced
- effect on inhibition of lipolysis in response to glimepiride ([2]; 50 μM): almost complete blockade
